The results in this text go back to BindingDB's records for doi:10.1016/j.bmc.2016.11.012 (China Pharmaceutical University, 2017).

A short description of this assay: Inhibition of rabbit thrombin-induced platelet aggregation in rabbit platelet-rich plasma preincubated with rabbit liver microsomes for 4 hrs followed by addition to platelet. (Microsomes from liver hold many membrane-bound enzymes, among them those of drug oxidation.)

Regarding `N/C(=N\C(=O)OCc1ccccc1)c1ccc(CC2c3nc4cc(C5(C(=O)N6CCCC6)CCCC5)ccc4n3CCN2C(=O)OCc2ccccc2)cc1` (stereo unspecified), the IC50 – broadly, the concentration needed to halve the response being measured – is more than 1000 µM.
Next, `CCCCCCOC(=O)/N=C(\N)c1ccc(CC2NCCn3c2nc2cc(C4(C(=O)N5CCCC5)CCCC4)ccc23)cc1` (stereo unspecified): 25.3 µM; `CCOC(=O)/N=C(\N)c1ccc(CC2NCCn3c2nc2cc(C4(C(=O)N5CCCC5)CCCC4)ccc23)cc1` (stereo unspecified): 88.2 µM; `CCCCCCOC(=O)/N=C(\N)c1ccc(CC2c3nc4cc(C5(C(=O)N6CCCC6)CCCC5)ccc4n3CCN2C(=O)OCCCCCC)cc1` (stereo unspecified): 91.5 µM.
Next, `CC(C)COC(=O)/N=C(\N)c1ccc(CC2c3nc4cc(C5(C(=O)N6CCCC6)CCCC5)ccc4n3CCN2C(=O)OCC(C)C)cc1` (stereo unspecified): more than 1000 µM; `CCCCCCOC(=O)N=C(N)c1ccc(NCc2nc3cc(C(=O)N(CCC(=O)OCC)c4ccccn4)ccc3n2C)cc1` [BIBR-1048]: 0.554 µM; `CC(C)(C)OC(=O)/N=C(\N)c1ccc(CC2NCCn3c2nc2cc(C4(C(=O)N5CCCC5)CCCC4)ccc23)cc1` (stereo unspecified): 8.16 µM.
As for `CC(C)(C)OC(=O)/N=C(\N)c1ccc(CC2c3nc4cc(C5(C(=O)N6CCCC6)CCCC5)ccc4n3CCN2C(=O)OC(C)(C)C)cc1` (stereo unspecified), the figure is more than 1000 µM.
`CC(C)COC(=O)/N=C(\N)c1ccc(CC2NCCn3c2nc2cc(C4(C(=O)N5CCCC5)CCCC4)ccc23)cc1` (stereo unspecified) displayed an IC50 of 164 µM.
On to `Cc1nc(C)c(OC(=O)/N=C(\N)c2ccc(CC3NCCn4c3nc3cc(C5(C(=O)N6CCCC6)CCCC5)ccc34)cc2)nc1C` (stereo unspecified), for which inhibition was half-maximal at 1.95 µM (IC50).
As for `N/C(=N\C(=O)OCc1ccccc1)c1ccc(CC2NCCn3c2nc2cc(C4(C(=O)N5CCCC5)CCCC4)ccc23)cc1` (stereo unspecified), the figure is 91.2 µM.
